Several values for one entry are separate records, joined by “and”; a condition that tells them apart may be missing. Equal entries are not always repeated. Each block holds one compound with its values, some of them ahead of it. Activity calls are given as the source filed them.
Tests used:
[1] = Luminescence Cell-Based Dose Confirmation HTS to Identify Inhibitors of Polyadenylation.; assay type: functional
[2] = target: Lytic switch protein BZLF1 (Epstein-Barr virus (strain B95-8) (HHV-4) (Human herpesvirus 4), UniProt P03206); assay: EBV ZTA inhibitors, dose response, counter-screen for EBNA-1 inhibitor project, biochemical, fluorescence polarization, Epstein-Barr virus, 1536-well (AID 2377); design: species or system human gammaherpesvirus 4;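 note: fluorescence polarization of Cy5-labelled ZRE DNA probe bound by purified Zta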
Sequence of Lytic switch protein BZLF1 (P03206 whole entry): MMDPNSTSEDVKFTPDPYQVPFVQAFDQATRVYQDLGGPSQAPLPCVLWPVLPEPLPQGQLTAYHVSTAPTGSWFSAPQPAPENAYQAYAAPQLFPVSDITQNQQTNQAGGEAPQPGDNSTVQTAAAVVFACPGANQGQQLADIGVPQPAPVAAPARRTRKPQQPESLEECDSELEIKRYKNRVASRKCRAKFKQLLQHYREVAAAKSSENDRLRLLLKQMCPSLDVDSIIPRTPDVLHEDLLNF

[3] = target: Epstein-Barr nuclear antigen 1 (Epstein-Barr virus (strain B95-8) (HHV-4) (Human herpesvirus 4), UniProt P03211); assay: EBNA-1 inhibitors, dose response, biochemical, fluorescence polarization, 1536-well (AID 2381); design: species or system human gammaherpesvirus 4;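 note: fluorescence polarization of a Cy5 DNA probe bound by EBNA-1 protein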
Sequence of Epstein-Barr nuclear antigen 1 (P03211 whole entry, the tested form may be a part): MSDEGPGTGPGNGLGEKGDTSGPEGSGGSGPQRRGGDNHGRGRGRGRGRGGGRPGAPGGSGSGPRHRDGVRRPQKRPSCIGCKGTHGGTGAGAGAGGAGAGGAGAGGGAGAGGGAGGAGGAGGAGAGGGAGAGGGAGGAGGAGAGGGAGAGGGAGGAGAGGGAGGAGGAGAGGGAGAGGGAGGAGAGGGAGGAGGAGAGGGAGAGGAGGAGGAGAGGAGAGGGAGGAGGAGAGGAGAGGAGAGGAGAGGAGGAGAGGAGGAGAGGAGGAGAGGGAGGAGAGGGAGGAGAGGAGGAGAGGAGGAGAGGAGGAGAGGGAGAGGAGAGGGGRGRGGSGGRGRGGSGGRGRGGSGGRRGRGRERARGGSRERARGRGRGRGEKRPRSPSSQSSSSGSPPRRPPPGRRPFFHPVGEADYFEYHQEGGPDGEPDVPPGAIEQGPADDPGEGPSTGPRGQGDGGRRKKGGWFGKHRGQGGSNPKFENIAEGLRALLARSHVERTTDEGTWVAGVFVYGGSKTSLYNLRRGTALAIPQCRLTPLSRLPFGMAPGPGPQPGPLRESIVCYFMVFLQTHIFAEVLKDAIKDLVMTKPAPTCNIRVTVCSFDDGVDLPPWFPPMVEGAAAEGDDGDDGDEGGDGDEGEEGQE

Estrogen receptor = target: T1, Estrogen receptor (Homo sapiens, UniProt P03372); assay: potentiators of ERα–SRC-1 coactivator binding, dose response, biochemical, TR-FRET, ERα LBD (AID 737)
T1 sequence (P03372 whole entry): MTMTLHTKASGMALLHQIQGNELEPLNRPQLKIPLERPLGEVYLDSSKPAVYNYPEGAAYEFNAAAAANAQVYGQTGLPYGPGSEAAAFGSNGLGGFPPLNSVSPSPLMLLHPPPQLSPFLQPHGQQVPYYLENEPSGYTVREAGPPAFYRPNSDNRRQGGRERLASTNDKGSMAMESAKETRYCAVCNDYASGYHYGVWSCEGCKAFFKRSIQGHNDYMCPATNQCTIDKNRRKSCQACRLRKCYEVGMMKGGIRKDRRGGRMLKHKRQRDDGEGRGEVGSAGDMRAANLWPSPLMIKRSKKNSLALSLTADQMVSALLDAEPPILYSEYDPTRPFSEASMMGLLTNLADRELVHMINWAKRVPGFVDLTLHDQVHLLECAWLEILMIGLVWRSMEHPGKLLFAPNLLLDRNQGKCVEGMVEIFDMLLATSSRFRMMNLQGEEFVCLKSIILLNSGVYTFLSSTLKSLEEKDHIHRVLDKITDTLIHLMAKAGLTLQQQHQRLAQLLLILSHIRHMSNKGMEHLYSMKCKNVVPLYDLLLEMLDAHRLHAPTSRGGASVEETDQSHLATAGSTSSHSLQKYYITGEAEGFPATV

[4] = target: Protein-tyrosine kinase 2-beta (Homo sapiens, UniProt Q14289);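 note: potency of inhibitors of PYK2 kinase phosphorylation of poly-GT substrate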
[5] = target: Sphingosine 1-phosphate receptor 2 (Homo sapiens, UniProt O95136); assay: Dose Response Cell Based Assay for Agonists of the S1P2 Receptor of Purchased Analogues. [Related pubchem assays: 729, 843, 854, 736 ]; assay type: functional
Sequence of Sphingosine 1-phosphate receptor 2 (O95136 whole entry): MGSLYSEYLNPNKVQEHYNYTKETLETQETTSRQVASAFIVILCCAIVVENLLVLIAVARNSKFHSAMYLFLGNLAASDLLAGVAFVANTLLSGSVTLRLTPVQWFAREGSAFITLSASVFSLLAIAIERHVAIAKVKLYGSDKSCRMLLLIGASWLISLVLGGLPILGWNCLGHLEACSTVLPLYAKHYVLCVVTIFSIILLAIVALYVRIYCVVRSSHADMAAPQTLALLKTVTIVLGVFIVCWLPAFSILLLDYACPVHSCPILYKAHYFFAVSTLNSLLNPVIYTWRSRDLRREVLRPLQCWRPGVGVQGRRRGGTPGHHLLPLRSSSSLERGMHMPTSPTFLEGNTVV

Procathepsin L = Procathepsin L (Homo sapiens, UniProt P07711); assay: cathepsin L inhibitors, dose response, counter-screen for M1/M17 aminopeptidase inhibitor project, biochemical, QFRET, 1536-well (AID 2214)
Sequence of Procathepsin L (P07711 whole entry): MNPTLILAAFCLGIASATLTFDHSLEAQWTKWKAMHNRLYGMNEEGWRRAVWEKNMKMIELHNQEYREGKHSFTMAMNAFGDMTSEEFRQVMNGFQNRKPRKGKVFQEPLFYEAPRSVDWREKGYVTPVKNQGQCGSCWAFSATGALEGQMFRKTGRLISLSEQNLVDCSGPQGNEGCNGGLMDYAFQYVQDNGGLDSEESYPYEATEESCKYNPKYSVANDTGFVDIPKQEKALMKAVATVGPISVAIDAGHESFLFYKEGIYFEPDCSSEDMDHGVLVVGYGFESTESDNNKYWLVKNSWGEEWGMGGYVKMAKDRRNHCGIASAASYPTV

Leucine aminopeptidase = target: T2, Leucine aminopeptidase (Plasmodium falciparum 3D7, UniProt Q8IL11); assay: P. falciparum M17LAP inhibitors, primary screen, biochemical, fluorogenic H-Leu-NHMec substrate, 1536-well (AID 1619); assay type: functional
T2 sequence (Q8IL11 whole entry): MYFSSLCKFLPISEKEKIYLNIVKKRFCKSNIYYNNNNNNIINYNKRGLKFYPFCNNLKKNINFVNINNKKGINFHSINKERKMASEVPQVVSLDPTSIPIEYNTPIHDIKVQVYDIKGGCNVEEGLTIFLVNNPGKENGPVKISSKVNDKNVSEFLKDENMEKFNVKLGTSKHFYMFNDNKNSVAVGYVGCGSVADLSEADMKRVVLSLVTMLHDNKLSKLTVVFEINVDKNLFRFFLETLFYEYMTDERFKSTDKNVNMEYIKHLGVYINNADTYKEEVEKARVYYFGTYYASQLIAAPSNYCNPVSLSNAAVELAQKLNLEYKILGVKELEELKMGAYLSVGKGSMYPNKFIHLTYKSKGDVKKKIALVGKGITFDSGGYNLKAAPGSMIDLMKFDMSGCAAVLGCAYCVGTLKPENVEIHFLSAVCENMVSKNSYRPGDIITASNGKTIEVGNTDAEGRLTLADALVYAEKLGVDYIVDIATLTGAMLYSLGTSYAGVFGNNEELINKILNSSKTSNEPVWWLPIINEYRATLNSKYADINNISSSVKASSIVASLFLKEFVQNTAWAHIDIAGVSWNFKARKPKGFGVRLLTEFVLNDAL

Aspartyl aminopeptidase = Aspartyl aminopeptidase (Plasmodium falciparum 3D7, UniProt Q8I2J3); assay: Counterscreen for inhibitors of M1 and M17 aminopeptidases: QFRET-based biochemical high throughput dose response assay for inhibitors of the Plasmodium falciparum M18 Aspartyl Aminopeptidase (PFM18AAP). [Related PubChem assays: 1619 (Screening assay (M17LAP inhibitors).), 1445 (Screening assay (M1AAP inhibitors).)]
Sequence of Aspartyl aminopeptidase (Q8I2J3 whole entry): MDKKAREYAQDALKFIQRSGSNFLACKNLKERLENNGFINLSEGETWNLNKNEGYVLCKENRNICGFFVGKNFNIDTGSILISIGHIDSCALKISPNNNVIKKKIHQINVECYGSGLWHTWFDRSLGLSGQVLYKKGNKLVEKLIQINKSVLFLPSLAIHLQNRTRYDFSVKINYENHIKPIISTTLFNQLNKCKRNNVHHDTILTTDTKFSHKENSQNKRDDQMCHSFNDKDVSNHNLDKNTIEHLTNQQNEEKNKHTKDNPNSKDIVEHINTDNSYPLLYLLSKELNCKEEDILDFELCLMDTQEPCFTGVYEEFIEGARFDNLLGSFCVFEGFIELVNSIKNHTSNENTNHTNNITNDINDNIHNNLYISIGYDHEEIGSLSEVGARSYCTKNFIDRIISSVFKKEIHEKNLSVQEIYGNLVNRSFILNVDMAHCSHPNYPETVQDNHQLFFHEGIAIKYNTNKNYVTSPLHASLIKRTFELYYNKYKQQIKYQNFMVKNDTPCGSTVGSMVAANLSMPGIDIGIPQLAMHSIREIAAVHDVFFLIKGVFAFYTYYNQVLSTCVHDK

Beta Lactamase = Beta Lactamase (Pseudomonas aeruginosa, UniProt Q932Y6); assay: beta-lactamase reporter inhibitor potency, dose response, artefact control for NOD2-RIPK2 interaction inhibitor project, BLA reporter cells, FRET fluorescence (AID 651552); assay type: functional, cell-based
[6] = control 3'UTR Renilla luciferase suppression, dose response, counter-screen for Shn3 inhibitor project, cell-based, Clone20-Shn3RL, cherry-picked (AID 624133); assay type: functional
[7] = cytotoxicity in KRAS-transformed pancreatic duct cells, primary screen, cell-based, fluorescence, HTS (AID 431); assay type: functional; details: Homo sapiens;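 note: cell line used: HPDE-C7K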
[8] = inhibitors of PGC1a acetylation in cells, dose response, cell-based, cherry-picked samples (AID 720514); assay type: functional;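 note: potency may reflect raised or lowered acetylation signal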
[9] = target: T3, Hepatocyte nuclear factor 4-alpha (Homo sapiens, UniProt P41235); assay type: functional, cell-based;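 note: biochemical luminescence-based dose-response counterscreen measuring inhibition of HNF4 dimerization, run alongside a screen for blockers of ABHD5–perilipin-5 interaction; split luciferase complementation of HNF4 fusion proteins in cell lysate measuring dimerization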
T3 sequence (P41235 whole entry): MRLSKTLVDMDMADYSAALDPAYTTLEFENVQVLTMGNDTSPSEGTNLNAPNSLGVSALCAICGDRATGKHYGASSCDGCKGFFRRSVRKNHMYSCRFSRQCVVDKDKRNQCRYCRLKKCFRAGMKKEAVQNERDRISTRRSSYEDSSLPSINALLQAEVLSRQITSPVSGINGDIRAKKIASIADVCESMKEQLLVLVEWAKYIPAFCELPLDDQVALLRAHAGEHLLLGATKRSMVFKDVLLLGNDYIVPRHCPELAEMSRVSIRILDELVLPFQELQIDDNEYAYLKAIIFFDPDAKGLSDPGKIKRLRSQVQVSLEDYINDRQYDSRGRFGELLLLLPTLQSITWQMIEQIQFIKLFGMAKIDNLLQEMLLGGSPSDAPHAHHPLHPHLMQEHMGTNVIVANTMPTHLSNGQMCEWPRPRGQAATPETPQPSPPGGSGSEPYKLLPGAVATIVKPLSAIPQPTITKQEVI

[10] = cytotoxicity in HPDE-C7 cells, cell-based, fluorescence, HTS (AID 430); assay type: functional; details: Homo sapiens
Bcl-2-related protein A1 [11] = target: T4, Bcl-2-related protein A1 (Mus musculus, UniProt Q07440); assay: Bfl-1 inhibitors blocking BH3 peptide binding, confirmation, biochemical, TR-FRET, mouse Bfl-1 (AID 621);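 note: TR-FRET binding of GST-Bfl-1 to FITC-labelled Bid peptide via terbium antibody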
T4 sequence (Q07440 whole entry): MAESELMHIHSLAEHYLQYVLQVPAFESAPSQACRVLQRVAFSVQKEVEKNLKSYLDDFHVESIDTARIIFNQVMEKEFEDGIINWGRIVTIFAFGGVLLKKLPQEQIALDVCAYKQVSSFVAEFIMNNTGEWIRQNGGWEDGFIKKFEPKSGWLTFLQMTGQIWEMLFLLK

[12] = target: G-protein coupled receptor 55 (Homo sapiens, UniProt Q9Y2T6); assay: GPR55 antagonists blocking LPI-driven arrestin recruitment, primary screen, imaging, U2OS, beta-arrestin-GFP, LPI agonist (AID 2013); assay type: functional;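 note: antagonist potency measured as reduced agonist-driven arrestin aggregation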
Sequence of G-protein coupled receptor 55 (Q9Y2T6 whole entry): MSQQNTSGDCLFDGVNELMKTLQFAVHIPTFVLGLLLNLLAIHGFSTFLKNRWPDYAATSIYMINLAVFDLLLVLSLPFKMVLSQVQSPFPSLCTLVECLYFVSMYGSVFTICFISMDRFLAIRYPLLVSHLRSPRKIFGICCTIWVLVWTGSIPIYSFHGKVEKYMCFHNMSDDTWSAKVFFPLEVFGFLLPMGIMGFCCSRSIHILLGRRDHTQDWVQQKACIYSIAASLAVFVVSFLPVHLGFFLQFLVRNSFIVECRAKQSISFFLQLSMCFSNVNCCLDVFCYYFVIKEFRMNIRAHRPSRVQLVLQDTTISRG

Bcl-2-related protein A1 [13] = target: T4, Bcl-2-related protein A1; assay: Bfl-1 inhibitors, primary screen, biochemical, fluorescence polarization, FITC-Bid, mouse (AID 432)
Bcl-2-related protein A1 [14] = target: T4, Bcl-2-related protein A1; assay: Bfl-1 binding inhibitors, SAR follow-up, biochemical, fluorescence polarization (AID 1070)
[15] = target: T5, Nucleotide-binding oligomerization domain-containing protein 1 (Homo sapiens, UniProt Q9Y239); assay: SAR analysis of compounds that inhibit NOD1 - Set 3. [Related pubchem assays (depositor defined):AID1566, AID1575, AID1578, AID1849, AID1852, AID2333, AID2335, AID2466]; assay type: functional
T5 sequence (Q9Y239 whole entry): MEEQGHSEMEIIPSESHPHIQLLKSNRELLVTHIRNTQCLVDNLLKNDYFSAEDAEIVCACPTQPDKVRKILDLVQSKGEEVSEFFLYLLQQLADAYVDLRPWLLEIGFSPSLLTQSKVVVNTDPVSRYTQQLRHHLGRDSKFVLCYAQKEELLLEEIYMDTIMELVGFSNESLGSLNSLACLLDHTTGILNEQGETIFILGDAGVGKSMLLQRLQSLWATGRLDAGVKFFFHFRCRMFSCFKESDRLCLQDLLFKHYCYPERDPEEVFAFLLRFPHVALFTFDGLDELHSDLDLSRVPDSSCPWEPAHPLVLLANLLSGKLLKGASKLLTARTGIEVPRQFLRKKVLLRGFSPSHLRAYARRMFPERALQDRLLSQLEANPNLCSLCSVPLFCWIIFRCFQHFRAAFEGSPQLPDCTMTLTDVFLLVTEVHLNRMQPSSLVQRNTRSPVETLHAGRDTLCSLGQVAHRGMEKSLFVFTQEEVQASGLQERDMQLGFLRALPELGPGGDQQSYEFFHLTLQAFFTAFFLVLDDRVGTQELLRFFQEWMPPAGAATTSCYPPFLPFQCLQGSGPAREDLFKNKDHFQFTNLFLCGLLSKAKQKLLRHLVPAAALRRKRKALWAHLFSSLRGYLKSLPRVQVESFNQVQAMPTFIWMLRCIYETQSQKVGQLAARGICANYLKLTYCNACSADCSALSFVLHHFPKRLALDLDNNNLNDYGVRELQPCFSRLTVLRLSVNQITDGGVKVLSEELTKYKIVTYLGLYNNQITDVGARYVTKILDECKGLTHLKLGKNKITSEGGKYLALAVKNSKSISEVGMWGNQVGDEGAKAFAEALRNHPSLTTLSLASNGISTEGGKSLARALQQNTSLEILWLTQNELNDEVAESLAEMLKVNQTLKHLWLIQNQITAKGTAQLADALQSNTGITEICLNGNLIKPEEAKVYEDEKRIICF

[16] = C. albicans growth with fluconazole, confirmation, fluorescence, retest (AID 2467); assay type: functional, cell-based
Tumor necrosis factor = Tumor necrosis factor (Homo sapiens, UniProt P01375); assay: TNFa-triggered NF-kB activation inhibitors, SAR follow-up, cell-based, set 3 (AID 2801); assay type: functional
Beta-galactosidase = Beta-galactosidase (Escherichia coli, UniProt Q8VNN2); assay: beta-galactosidase enzyme inhibitors and activators, dose response, artefact control for CCR6 antagonist project, biochemical, E. coli enzyme, set 3 (AID 504712); assay type: functional
Sequence of Beta-galactosidase (Q8VNN2 whole entry): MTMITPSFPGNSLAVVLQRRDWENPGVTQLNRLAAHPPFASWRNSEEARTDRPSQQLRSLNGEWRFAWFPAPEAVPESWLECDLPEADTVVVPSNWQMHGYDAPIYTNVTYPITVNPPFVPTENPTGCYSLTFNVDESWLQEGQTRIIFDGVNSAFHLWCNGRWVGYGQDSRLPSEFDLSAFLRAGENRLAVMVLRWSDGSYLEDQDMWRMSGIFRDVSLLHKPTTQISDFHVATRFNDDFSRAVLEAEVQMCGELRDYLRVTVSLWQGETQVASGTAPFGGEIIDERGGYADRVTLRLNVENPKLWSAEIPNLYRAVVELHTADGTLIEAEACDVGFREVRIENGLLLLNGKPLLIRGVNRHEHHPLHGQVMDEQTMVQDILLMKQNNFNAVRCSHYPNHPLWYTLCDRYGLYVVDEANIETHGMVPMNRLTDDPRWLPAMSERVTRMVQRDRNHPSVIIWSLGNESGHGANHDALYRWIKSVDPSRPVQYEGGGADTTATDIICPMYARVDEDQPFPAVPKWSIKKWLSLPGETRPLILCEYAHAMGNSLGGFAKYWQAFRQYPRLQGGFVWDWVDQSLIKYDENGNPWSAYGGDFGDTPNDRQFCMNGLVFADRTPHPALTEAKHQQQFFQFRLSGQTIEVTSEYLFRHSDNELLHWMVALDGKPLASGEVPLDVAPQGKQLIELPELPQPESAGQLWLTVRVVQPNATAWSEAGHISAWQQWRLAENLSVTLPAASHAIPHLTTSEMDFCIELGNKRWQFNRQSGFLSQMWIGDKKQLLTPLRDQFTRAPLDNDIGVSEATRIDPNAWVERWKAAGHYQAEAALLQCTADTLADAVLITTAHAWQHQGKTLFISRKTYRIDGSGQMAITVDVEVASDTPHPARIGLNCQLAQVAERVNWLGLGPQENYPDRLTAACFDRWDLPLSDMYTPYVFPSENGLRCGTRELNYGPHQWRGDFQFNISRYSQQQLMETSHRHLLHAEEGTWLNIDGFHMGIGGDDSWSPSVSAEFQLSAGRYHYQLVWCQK

[17] = HEK293T cell cytotoxicity, dose response, cytotoxicity control for HIV Vif inhibitor project, cherry-picks (AID 652208); assay type: functional, cell-based
[18] = Fluorescence-based cell-based high throughput dose response assay for inhibitors of the interaction of nucleotide-binding oligomerization domain containing 2 (NOD2) and the receptor-interacting serine-threonine kinase 2 (RIPK2).; assay type: functional, Homo sapiens; details: Homo sapiens
[19] = HepG2 cell cytotoxicity, dose response, cytotoxicity control for Shn3 inhibitor project, CellTiter-Glo, cherry-picked (AID 624134); assay type: functional, cell-based
HEK293 = assay: SAR analysis of compounds that are cytotoxic to HEK293 - Set 3. [Related pubchem assays (depositor defined):AID1575, AID1578, AID1848, AID1849, AID2001, AID2333, AID2334, AID2335, AID2337, AID2469]; assay type: functional, cell-based; details: Homo sapiens
[20] = target: Nucleotide-binding oligomerization domain-containing protein 2 (Homo sapiens, UniProt Q9HC29); assay: NOD2 signaling inhibitors, analog potency, SAR follow-up, cell-based, set 3 (AID 2799); assay type: functional
Sequence of Nucleotide-binding oligomerization domain-containing protein 2 (Q9HC29 whole entry, the tested form may be a part): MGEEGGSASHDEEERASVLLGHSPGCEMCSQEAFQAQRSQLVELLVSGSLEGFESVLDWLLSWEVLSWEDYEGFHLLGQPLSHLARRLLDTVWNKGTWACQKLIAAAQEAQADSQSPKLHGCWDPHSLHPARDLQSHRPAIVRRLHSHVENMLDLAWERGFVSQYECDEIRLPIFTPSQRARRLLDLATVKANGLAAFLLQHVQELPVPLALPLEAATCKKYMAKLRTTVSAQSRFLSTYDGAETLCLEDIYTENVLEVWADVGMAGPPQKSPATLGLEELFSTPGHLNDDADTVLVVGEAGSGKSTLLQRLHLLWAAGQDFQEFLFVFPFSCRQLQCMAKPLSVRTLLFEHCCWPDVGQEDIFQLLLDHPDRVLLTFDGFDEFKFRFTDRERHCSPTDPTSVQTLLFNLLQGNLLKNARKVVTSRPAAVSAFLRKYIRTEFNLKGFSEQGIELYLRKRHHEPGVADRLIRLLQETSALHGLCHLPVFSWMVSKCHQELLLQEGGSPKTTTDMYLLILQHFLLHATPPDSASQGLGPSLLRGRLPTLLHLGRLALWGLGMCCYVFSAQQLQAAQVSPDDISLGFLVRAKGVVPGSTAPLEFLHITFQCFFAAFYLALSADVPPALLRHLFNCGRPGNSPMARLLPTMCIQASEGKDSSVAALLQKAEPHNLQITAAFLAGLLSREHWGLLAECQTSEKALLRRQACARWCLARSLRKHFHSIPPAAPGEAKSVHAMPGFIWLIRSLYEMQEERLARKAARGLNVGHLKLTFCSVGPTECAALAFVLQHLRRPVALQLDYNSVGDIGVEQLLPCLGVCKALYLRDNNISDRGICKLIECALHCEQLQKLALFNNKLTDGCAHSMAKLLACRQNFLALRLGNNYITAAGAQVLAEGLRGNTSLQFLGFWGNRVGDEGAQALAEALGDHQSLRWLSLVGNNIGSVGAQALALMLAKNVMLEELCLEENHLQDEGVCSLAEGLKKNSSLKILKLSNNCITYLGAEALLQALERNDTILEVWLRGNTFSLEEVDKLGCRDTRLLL

[21] = NIH-3T3 fibroblast cytotoxicity, dose response, cytotoxicity control, cell-based, fluorescence, Alamar Blue, secondary assay (AID 2327); assay type: functional;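 note: NIH-3T3 mouse fibroblasts cultured with fluconazole at 8 µg/mL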
[22] = Shn3 3'UTR reporter inhibitors, dose response, cell-based, Clone20 osteoblasts, firefly luciferase, cherry-picked (AID 624132); assay type: functional;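 note: firefly luciferase luminescence from reporter carrying the Shn3 3'UTR in osteoblasts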
[23] = target: Glyceraldehyde-3-phosphate dehydrogenase (Homo sapiens, UniProt P04406)
Sequence of Glyceraldehyde-3-phosphate dehydrogenase (P04406 whole entry): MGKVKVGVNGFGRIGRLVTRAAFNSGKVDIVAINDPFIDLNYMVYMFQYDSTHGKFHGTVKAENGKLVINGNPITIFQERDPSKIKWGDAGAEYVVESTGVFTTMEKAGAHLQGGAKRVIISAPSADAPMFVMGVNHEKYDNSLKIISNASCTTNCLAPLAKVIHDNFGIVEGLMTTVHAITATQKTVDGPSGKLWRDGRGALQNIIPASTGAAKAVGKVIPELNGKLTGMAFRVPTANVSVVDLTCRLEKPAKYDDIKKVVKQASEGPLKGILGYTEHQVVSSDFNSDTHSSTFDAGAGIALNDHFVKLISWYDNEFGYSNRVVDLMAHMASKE

Structure (SMILES): CS(=O)(=O)N1CCN(CC2CC3C=CC2C3)CC1 (stereo unspecified)
EC50 [1]: > 120 µM (not active)

Structure (SMILES): O=C(NCCCCCCNC(=O)c1ccc(Br)s1)c1ccc(Br)s1
EC50 (Estrogen receptor): 12.8 µM (not active)

Structure (SMILES): COc1ccc(-c2cc(N)n(S(=O)(=O)c3c(F)c(F)c(F)c(F)c3F)n2)cc1OC
IC50 (Beta Lactamase): 34.3 µM (inactive)
AC50 [6]: 4.25 µM (active)
EC50 [7]: 2.15 µM (active)
AC50 [8]: 8.51 µM (active)
IC50 [9]: 6.26 µM (active)
EC50 [10]: 2.82 µM (active)
IC50 (Bcl-2-related protein A1 [11]): 4.33 µM (active) and 4.96 µM (active)
IC50 [12]: 1.18 µM (active)
IC50 (Bcl-2-related protein A1 [13]): 5.82 µM (active)
IC50 (Bcl-2-related protein A1 [14]): 5.39 µM (active)
IC50 [15]: 16.2 µM (active)
EC50 [16]: 3.9 µM (active)
IC50 (Tumor necrosis factor): 10.3 µM (active)
IC50 (Beta-galactosidase): > 66.6 µM (inactive)
AC50 [17]: 3.69 µM (active)
IC50 [18]: 951 nM (active)
AC50 [19]: 20.2 µM (active)
IC50 (HEK293): > 20 µM (inactive)
IC50 [20]: 16.4 µM (active)
EC50 [21]: 5.96 µM (inconclusive)
AC50 [22]: 896 nM (active)
IC50 [23]: > 100 µM (not active)

Now from value to compound:

IC50 [2]: > 111 µM (not active)
IC50 [3]: 37.8 µM (not active)
Structure (SMILES): COc1ccc(CNc2nc(NCc3ccc(OC)cc3)n(C(C)=O)n2)cc1

IC50 [4]: > 69.5 µM (not active)
Structure (SMILES): COC(=O)Cc1ccc2c3ccccc3n(C)c2c1

EC50 [5]: > 30 µM (not active)
Structure (SMILES): Cc1cc(C(=O)CN2C(=O)CCC2=O)c(C)n1Cc1ccc2c(c1)OCO2

IC50 (Procathepsin L): > 59.6 µM (not active)
IC50 (Leucine aminopeptidase): < 1 µM (active)
IC50 (Aspartyl aminopeptidase): > 73.5 µM (not active)
Structure (SMILES): O=C(O)Cc1ccc(NC(=O)Nc2ccc(Br)cc2)cc1

Reference: ChEMBL document CHEMBL1201862, “PubChem BioAssay data set” (2004)
